Values quoted from earlier work, collected in US11013708B2, “Prevention of psychotic disorders and/or treatment of psychotic symptoms” (Orygen Youth Health Research Centre, priority 2008, dated 2021).

Legend:
[1] = system: first-episode psychosis patients; conditions: in vivo 1H-MRS
[2] = system: ultra-high-risk groups; conditions: risperidone and cognitive therapy for 6 months vs supportive counselling

CC/C=C\C/C=C\C/C=C\C/C=C\C/C=C\CCCC(=O)O [EPA, all cis (or all z) 5,8, 11, 14, 17-eicosapentanoic acid]
glutathione in temporal lobes [1]: can increase glutathione

Cc1nc2n(c(=O)c1CCN1CCC(c3noc4cc(F)ccc34)CC1)CCCC2 [risperidone]
efficacy of preventive intervention vs comparator [2]: significantly more effective than supportive counselling at end of intervention, but not at 12-month follow-up
